From PMC3348135, “Identification of New Agonists and Antagonists of the Insect Odorant Receptor Co-Receptor Subunit” (PLoS ONE, 2012)
Like-named read-outs stand apart in the source and are kept apart here.

Columns and labels:
[1] = target: T1, Cqui\Orco + Cqui\Or10 (Culex quinquefasciatus, UniProt D5LMR7+Q309I4); design: method as in PMID 20623327; conditions: read-out: EC50 for activation of Cqui\Orco+Cqui\Or10 by 3-methylindole; cited from earlier work
[2] = target: T1, Cqui\Orco + Cqui\Or10; assay: Activation of Cqui\Orco + Cqui\Or10 in Xenopus oocytes, two-electrode voltage clamp; type: cell-based; conditions: for Emax at 100 µM: 100 µM compound, mean ± SEM, n=3-8, read-out: Response amplitude as percentage of response to 100 µM OLC3, Cqui\Orco + Cqui\Or10
Protocol: (§1) Oocytes were surgically removed from mature Xenopus laevis frogs. Follicle cells were removed by treatment with Collagenase B (Boehringer Mannhem) for 2 hours at room temperature. Capped cRNA encoding each DmOR subunit was generated using mMessage mMachine kits (Ambion). For heteromeric ORs, 25 ng of cRNA encoding each OR subunit was injected into Stage V-VI Xenopus oocytes. For expression of Orco alone, 50 ng of cRNA was injected. Oocytes were incubated at 18°C in Barth’s saline (in mM: 88 NaCl, 1 KCl, 2.4 NaHCO3, 0.3 CaNO3, 0.41 CaCl2, 0.82 MgSO4, 15 HEPES, pH 7.6, and 150 µg/ml ceftazidime) for 2–5 days prior to electrophysiological recording.
(§2) Odorant and Orco ligand induced currents were recorded under two-electrode voltage clamp in Xenopus laevis oocytes expressing ORs, using an automated parallel electrophysiology system (OpusExpress 6000A; Molecular Devices). Oocytes were perfused with ND96 (in mM: 96 NaCl, 2 KCl, 1 CaCl2, 1 MgCl2, 5 HEPES, pH 7.5). Odorant stock solutions (0.5 or 1 M) and Orco ligand stock solutions (100 mM) were prepared in DMSO and diluted in ND96. Unless otherwise noted, applications were for 60 sec at a flow rate of 1.0 ml/min, with extensive washing in ND96 (9 or 20 min at 4.6 ml/min) between applications. Micropipettes were filled with 3 M KCl and had resistances of 0.2−2.0 MΩ. The holding potential was −70 mV. Current responses, filtered (4-pole, Bessel, low pass) at 20 Hz (−3 db) and sampled at 100 Hz, were captured and stored using OpusXpress 1.1 software (Molecular Devices).
(§3) Initial analysis of electrophysiological data was done using Clampfit 9.1 software (Molecular Devices). Curve fitting and statistical analyses were done using Prism 5 (Graphpad). Concentration-response data were fit to the equation: I = Imax/(1+(EC50/X)^n) where I represents the current response at a given concentration of odorant, X; Imax is the maximal response; EC50 is the concentration of agonist yielding a half maximal response; n is the apparent Hill coefficient. Concentration-inhibition data were fit to the equation: I = Imax/(1+(X/IC50)^n) where I represents the current response at a given concentration of inhibitor, X; Imax is the maximal response in the absence of inhibitor; IC50 is the concentration of inhibitor present that still allows a half maximal response from odorant; n is the apparent Hill coefficient. Statistical significance was assessed using a two-tailed unpaired t test, an F test, or a one-way analysis of variance followed by the Bonferroni’s post-test, as appropriate.

[3] = test system: Onub\Orco + Onub\Or1; assay: Agonist activation of Onub\Orco + Onub\Or1 in Xenopus oocytes, two-electrode voltage clamp; type: cell-based, Ostrinia nubilalis; conditions: 100 µM compound; mean ± SEM, n=3-8
[4] = target: T2, Dmel\Orco + Dmel\Or35a (Drosophila melanogaster, UniProt Q9VNB5); assay: Agonist activation of Dmel\Orco + Dmel\Or35a in Xenopus oocytes, two-electrode voltage clamp; type: cell-based; conditions: for EC50: concentration-response, responses normalized to 30 µM OLC3; for Emax at 100 µM: read-out: Response amplitude as percentage of response to 100 µM OLC3, Dmel\Orco + Dmel\Or35a
T2 construct: expressed in transfected cells; host or cells: Xenopus laevis oocytes (cRNA injection, pGEMHE)
T2 sequence (Q9VNB5 1-486): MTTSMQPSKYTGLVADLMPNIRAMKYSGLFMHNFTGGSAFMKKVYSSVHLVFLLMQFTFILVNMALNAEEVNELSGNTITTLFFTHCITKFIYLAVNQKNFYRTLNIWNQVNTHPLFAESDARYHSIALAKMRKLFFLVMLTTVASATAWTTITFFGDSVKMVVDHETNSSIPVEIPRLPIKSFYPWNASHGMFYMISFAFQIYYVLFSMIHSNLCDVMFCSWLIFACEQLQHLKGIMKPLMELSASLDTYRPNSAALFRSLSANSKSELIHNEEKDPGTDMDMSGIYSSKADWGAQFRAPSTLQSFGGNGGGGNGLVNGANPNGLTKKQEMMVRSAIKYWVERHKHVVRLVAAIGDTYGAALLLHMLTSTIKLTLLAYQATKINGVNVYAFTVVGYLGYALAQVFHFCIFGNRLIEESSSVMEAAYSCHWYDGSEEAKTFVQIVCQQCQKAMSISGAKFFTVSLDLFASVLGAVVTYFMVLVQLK
T2 sequence (Q9V3Q2 1-409 partner): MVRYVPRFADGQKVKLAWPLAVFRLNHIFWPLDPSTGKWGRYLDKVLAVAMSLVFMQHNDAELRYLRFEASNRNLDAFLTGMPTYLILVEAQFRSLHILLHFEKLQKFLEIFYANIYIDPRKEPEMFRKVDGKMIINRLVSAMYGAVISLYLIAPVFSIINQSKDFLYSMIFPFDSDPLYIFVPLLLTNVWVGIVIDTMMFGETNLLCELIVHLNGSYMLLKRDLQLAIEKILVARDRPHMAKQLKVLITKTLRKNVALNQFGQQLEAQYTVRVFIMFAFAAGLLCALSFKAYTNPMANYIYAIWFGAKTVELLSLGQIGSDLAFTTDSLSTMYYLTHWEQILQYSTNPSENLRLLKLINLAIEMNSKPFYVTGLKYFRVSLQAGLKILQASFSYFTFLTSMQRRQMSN
Protocol: as §1, §2, §3

[5] = Solubility in recording solution (observation); type: physicochemical; conditions: aqueous recording solution, higher concentrations (OLC2: above 100 µM)
Protocol: as §2

[6] = test system: Cqui\Orco; assay: Agonist activation of homomeric Cqui\Orco in Xenopus oocytes, two-electrode voltage clamp; type: cell-based, Culex quinquefasciatus; conditions: 100 µM compound; mean ± SEM, n=3-8
[7] = test system: sham (water) injected oocytes; assay: Response of sham (water) injected oocytes to Orco ligands; type: cell-based, Xenopus laevis; conditions: 100 µM, 60 sec application
Protocol: as §1, §2

[8] = target: T3, Dmel\Orco (Drosophila melanogaster, UniProt Q9VNB5); assay: Agonist activation of homomeric Dmel\Orco in Xenopus oocytes, two-electrode voltage clamp; type: cell-based; conditions: for EC50: concentration-response, responses normalized to 30 µM OLC3, saturation not obtained for OLC3 and VUAA1; for Emax at 100 µM: read-out: Response amplitude as percentage of response to 100 µM OLC3, Dmel\Orco
T3 construct: expressed in transfected cells; host or cells: Xenopus laevis oocytes (cRNA injection, pGEMHE)
T3 sequence (Q9VNB5 1-486): T2 sequence (Q9VNB5 1-486)
Protocol: as §1, §2, §3

T1 sequence (D5LMR7 entry or part of it): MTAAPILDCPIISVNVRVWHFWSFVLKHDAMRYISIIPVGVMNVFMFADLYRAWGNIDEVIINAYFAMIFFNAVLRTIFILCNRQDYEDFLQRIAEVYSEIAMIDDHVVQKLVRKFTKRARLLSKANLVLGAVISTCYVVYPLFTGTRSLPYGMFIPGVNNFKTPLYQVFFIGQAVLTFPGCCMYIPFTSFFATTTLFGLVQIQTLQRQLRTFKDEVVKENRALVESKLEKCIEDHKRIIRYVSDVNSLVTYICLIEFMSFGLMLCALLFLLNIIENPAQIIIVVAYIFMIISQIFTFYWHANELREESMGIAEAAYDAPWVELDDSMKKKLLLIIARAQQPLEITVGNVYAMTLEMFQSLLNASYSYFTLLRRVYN
T1 sequence (Q309I4 entry or part of it): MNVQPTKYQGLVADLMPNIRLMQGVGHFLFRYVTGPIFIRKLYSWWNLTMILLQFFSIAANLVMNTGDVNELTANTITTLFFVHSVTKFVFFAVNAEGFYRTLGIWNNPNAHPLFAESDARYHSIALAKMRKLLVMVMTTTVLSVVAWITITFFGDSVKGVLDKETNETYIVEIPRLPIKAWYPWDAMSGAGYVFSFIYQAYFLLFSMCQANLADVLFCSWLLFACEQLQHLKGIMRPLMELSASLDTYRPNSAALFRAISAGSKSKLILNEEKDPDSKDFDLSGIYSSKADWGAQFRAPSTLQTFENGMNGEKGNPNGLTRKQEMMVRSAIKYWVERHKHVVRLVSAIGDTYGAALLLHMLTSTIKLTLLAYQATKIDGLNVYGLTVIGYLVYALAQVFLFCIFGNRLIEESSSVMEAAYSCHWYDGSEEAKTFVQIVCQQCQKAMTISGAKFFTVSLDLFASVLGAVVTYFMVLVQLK

| SMILES | EC50 [1] [µM] | EC50 ([2]; absence of OLC15, read-out: EC50 for 3-MI activation of Cqui\Orco + Cqui\Or10) [µM] | EC50 ([2]; in presence of 3 µM OLC15, read-out: EC50 for 3-MI activation of Cqui\Orco + Cqui\Or10 in presence of OLC15) [µM] | Response amplitude as percentage of response to 100 µM OLC3, Onub\Orco + Onub\Or1 [3] [%] | Emax at 100 µM [2] [%] | EC50 [4] [µM] | Emax at 100 µM [4] [%] | Solubility [5] | Response amplitude as percentage of response to 100 µM OLC3, Cqui\Orco [6] [%] | Response of sham (water) injected oocytes [7] | EC50 [8] [µM] | Emax at 100 µM [8] [%] |
| --- | --- | --- | --- | --- | --- | --- | --- | --- | --- | --- | --- | --- |
| Cc1c[nH]c2ccccc12 [3-methylindole, reference compound] | 0.09 ± 0.017 | 0.313 ± 0.103 | 0.275 ± 0.041 | – | – | – | – | – | – | – | – | – |
| CCc1ccc(NC(=O)CSc2nnc(-c3ccncc3)n2CC)cc1 [OLC3] | – | – | – | 100 | 100 | 56 ± 8 | 100 | not fully soluble at higher concentrations | 100 | No responses | 346 ± 126 | 100 |
| CCn1c(SCC(=O)Nc2ccc(C(C)C)cc2)nnc1-c1ccncc1 [OLC12] | – | – | – | 306 ± 33 | 289 ± 41 | 18 ± 3 | 300 ± 41 | – | 636 ± 78 | No responses | 35 ± 3 | 318 ± 12 |
| CCc1ccc(NC(=O)CSc2nnc(-c3cccnc3)n2CC)cc1 [VUAA1, reference compound] | – | – | – | 60 ± 6 | 75 ± 3 | 57 ± 13 | 50 ± 9 | not fully soluble at higher concentrations | 18 ± 8 | No responses | 190 ± 30 | 24 ± 7 |
